According to ChEMBL document CHEMBL4483862, “Open-source discovery of chemical leads for next-generation chemoprotective antimalarials” (2018):

Tested on: Plasmodium berghei
Assay: Luciferase/luciferin-expressing antifolate-resistant parasites were used to infect a culture of HepG2 cells that were pre-incubated with compounds. Infected hepatocytes emit light due to the luciferase reaction. Assay results are presented as the percent inhibition of light emission compared to control. […]
Type: functional
Details: sporozoite; for IC90: read-out: LUCIFERASE INFECTION ASSAY - IC90
[1] = read-out: LUCIFERASE INFECTION ASSAY - IC50

| SMILES | IC90 [µM] | further results |
| --- | --- | --- |
| COc1ccc(Cn2nc(C(=O)NC3CCCC3)c3c2CCN(Cc2ccc4c(c2)CCO4)C3)cc1 | > 6.78 | IC50 (PBLUC_HILL_SLOPE 3.3, PBLUC_R_SQUARED 0.745, read-out: LUCIFERASE INFECTION ASSAY - IC50): 3.79 µM |
| O=C(Nc1ccccc1)Nc1ccc2cc(C(=O)c3ccccc3O)cnc2c1 | 4.81 | IC50 (PBLUC_HILL_SLOPE 1.23, 8.91, PBLUC_R_SQUARED 0.971, 0.189, read-out: LUCIFERASE INFECTION ASSAY - IC50): 3.52 µM |
| Cc1cc(-c2ccccc2)nc2c1/C(=N\O)CC(C)(C)C2 | > 11.8 | IC50 (HEPG2TOX_HILL_SLOPE 8.55, HEPG2TOX_R_SQUARED 0.808, PBLUC_HILL_SLOPE 3.52, PBLUC_R_SQUARED 0.12, read-out: LUCIFERASE INFECTION ASSAY - IC50): 8.87 µM |
| CCCCNC(=O)c1c(NC(=O)c2cccc(Cl)c2Cl)nc2ccc(C)cn12 | 1.27 | IC50 (HEPG2TOX_HILL_SLOPE 1.01, HEPG2TOX_R_SQUARED 0.774, PBLUC_HILL_SLOPE 4.09, PBLUC_R_SQUARED 0.588, read-out: LUCIFERASE INFECTION ASSAY - IC50): 0.743 µM |
| CC(Oc1ccc(Cl)cc1Cl)C(=N)NO (centres undefined) | > 13.2 | IC50 [1]: > 13.2 µM |
| O=C1C=CC(=O)N1c1ccccc1Br | > 13.1 | IC50 (PBLUC_HILL_SLOPE 18.8, PBLUC_R_SQUARED 0.535, read-out: LUCIFERASE INFECTION ASSAY - IC50): 12.7 µM |
| CC(C)c1ccc(C(Nc2ccc3nnnn3n2)c2cccs2)cc1 (centres undefined) | 5.57 | IC50 (HEPG2TOX_HILL_SLOPE 2.7, HEPG2TOX_R_SQUARED 0.805, PBLUC_HILL_SLOPE 2.3, PBLUC_R_SQUARED 0.604, read-out: LUCIFERASE INFECTION ASSAY - IC50): 2.14 µM |
| O=C(NC1CCCCC1)c1ccccc1-n1ncc(Cl)c(Cl)c1=O | 3.79 | IC50 (FFLUC_HILL_SLOPE 2.05, FFLUC_R_SQUARED 0.721, HEPG2TOX_HILL_SLOPE 15.4, HEPG2TOX_R_SQUARED 0.582, PBLUC_HILL_SLOPE 17.3, PBLUC_R_SQUARED 0.758, read-out: LUCIFERASE INFECTION ASSAY - IC50): 3.34 µM |
| Cc1cccc2c(=O)n(CC(=O)NCCCCOc3ccc(F)cc3)cnc12 | > 10 | IC50 [1]: > 10 µM |
| N#Cc1ccc(-c2cnc3cnc(-c4cccc(Cl)c4)cn23)cc1 | > 9.98 | IC50 (PBLUC_HILL_SLOPE 4, PBLUC_R_SQUARED 0.258, read-out: LUCIFERASE INFECTION ASSAY - IC50): 8.15 µM |
| C=CCOc1cccc(/C=C2/C(=O)Nc3cc(Cl)ccc32)c1 | > 10 | IC50 (FFLUC_HILL_SLOPE 17.6, FFLUC_R_SQUARED 0.397, HEPG2TOX_HILL_SLOPE 7.7, HEPG2TOX_R_SQUARED 0.755, PBLUC_HILL_SLOPE 12.7, PBLUC_R_SQUARED 0.0397, read-out: LUCIFERASE INFECTION ASSAY - IC50): 9.6 µM |
| O=C(Nc1ncc(Cc2ccc(Br)cc2)s1)c1ccc2n[nH]nc2c1 | 1.27 | IC50 (HEPG2TOX_HILL_SLOPE 1.09, HEPG2TOX_R_SQUARED 0.989, PBLUC_HILL_SLOPE 1.74, PBLUC_R_SQUARED 0.819, read-out: LUCIFERASE INFECTION ASSAY - IC50): 0.359 µM |
| Cc1cc(C)c(C)c(S(=O)(=O)N2CCC(C(=O)Nc3nnc(-c4ccccc4)o3)CC2)c1C | > 10 | IC50 (HEPG2TOX_HILL_SLOPE 7.53, HEPG2TOX_R_SQUARED 0.782, PBLUC_HILL_SLOPE 3.42, PBLUC_R_SQUARED 0.39, read-out: LUCIFERASE INFECTION ASSAY - IC50): 6.89 µM |
| Cc1ccc(S(=O)(=O)N2CCC[C@H]2C(=O)Nc2ccc(-c3nc4ccccc4[nH]3)cc2)cc1 | > 10 | IC50 (HEPG2TOX_HILL_SLOPE 1.59, HEPG2TOX_R_SQUARED 0.747, PBLUC_HILL_SLOPE 12.8, PBLUC_R_SQUARED 0.235, read-out: LUCIFERASE INFECTION ASSAY - IC50): 8.44 µM |
| Cc1sc2ncnc(Oc3ccc4ccccc4c3)c2c1-c1ccccc1 | > 10 | IC50 (HEPG2TOX_HILL_SLOPE 0.313, HEPG2TOX_R_SQUARED 0.61, PBLUC_HILL_SLOPE 2.74, PBLUC_R_SQUARED 0.421, read-out: LUCIFERASE INFECTION ASSAY - IC50): 6.76 µM |
| COc1cc(OC)cc(-c2cnc3cnc(-c4ccc(N5CCN(C)CC5)nc4)cn23)c1 | > 7.67 | IC50 (HEPG2TOX_HILL_SLOPE 4.69, HEPG2TOX_R_SQUARED 0.215, PBLUC_HILL_SLOPE 12, PBLUC_R_SQUARED 0.625, read-out: LUCIFERASE INFECTION ASSAY - IC50): 7.27 µM |

| SMILES | IC90 [µM] | further results |
| --- | --- | --- |
| O=C1CC(c2cccc3ccccc23)c2c([nH]c(-c3ccccc3)nc2=O)N1 (centres undefined) | > 8.98 | IC50 [1]: > 8.98 µM |
| ONC(=Nc1cccc(C(F)(F)F)c1)c1ccccc1 | > 11.8 | IC50 [1]: > 11.8 µM |
| Clc1cccc(-c2nnc3ccc(-c4ccc(N5CCOCC5)cc4)cn23)c1 | > 10 | IC50 (PBLUC_HILL_SLOPE 15.8, PBLUC_R_SQUARED 0.114, read-out: LUCIFERASE INFECTION ASSAY - IC50): 9.72 µM |
| COc1cccc(N(C)S(=O)(=O)c2cccc3cc(C)cnc23)n1 | 3.82 | IC50 (PBLUC_HILL_SLOPE 18.8, PBLUC_R_SQUARED 0.316, read-out: LUCIFERASE INFECTION ASSAY - IC50): 3.4 µM |
| Cc1n[nH]c(=S)n1C1CCCCC1 | > 10 | IC50 [1]: > 10 µM |
| NC(=O)c1ccsc1NC(=O)CN1CCC(c2c[nH]c3ccccc23)CC1 | > 10 | IC50 (FFLUC_HILL_SLOPE 7.73, FFLUC_R_SQUARED 0.279, read-out: LUCIFERASE INFECTION ASSAY - IC50): > 10 µM |
| C=CCN(C(=O)c1ccccc1OCc1c(C)noc1C)c1nc2c(s1)CCCC2 | > 10 | IC50 [1]: > 10 µM |
| CNc1ncnc(NNC(=O)Nc2ccc(OC(F)(F)F)cc2)c1[N+](=O)[O-] | > 8.52 | IC50 [1]: 3.31 µM |
| N#C/C(=N\Nc1cccc(C(F)(F)F)c1)S(=O)(=O)c1ccsc1 | > 9.18 | IC50 (HEPG2TOX_HILL_SLOPE 2.11, HEPG2TOX_R_SQUARED 0.943, PBLUC_HILL_SLOPE 4.11, PBLUC_R_SQUARED 0.604, read-out: LUCIFERASE INFECTION ASSAY - IC50): 6.42 µM |
| COc1ccc(Nc2nccc3[nH]c(-c4cccc(F)c4)cc23)cc1 | 3.55 | IC50 (HEPG2TOX_HILL_SLOPE 10.4, HEPG2TOX_R_SQUARED 0.0549, PBLUC_HILL_SLOPE 2.88, PBLUC_R_SQUARED 0.623, read-out: LUCIFERASE INFECTION ASSAY - IC50): 1.66 µM |
| CC(C1CC2CCC1C2)n1c(SCc2nnc(-c3ccccc3)o2)nnc1-c1ccco1 (centres undefined) | > 10 | IC50 (FFLUC_HILL_SLOPE 12, FFLUC_R_SQUARED 0.233, read-out: LUCIFERASE INFECTION ASSAY - IC50): > 10 µM |
| Nc1nc(Cl)cc(Sc2ccc3ccccc3c2)n1 | > 11.5 | IC50 (HEPG2TOX_HILL_SLOPE 6.9, HEPG2TOX_R_SQUARED 0.449, read-out: LUCIFERASE INFECTION ASSAY - IC50): > 11.5 µM |
| Cc1c(C(=O)N/N=C/c2c3ccccc3c(Cl)c3ccccc23)nc2ccccn12 | > 10 | IC50 [1]: > 10 µM |
| N#Cc1ccc(NC(=O)Cn2ncc(Cl)c(Cl)c2=O)cc1 | 5.23 | IC50 (HEPG2TOX_HILL_SLOPE 73.2, HEPG2TOX_R_SQUARED 0.451, PBLUC_HILL_SLOPE 8.64, PBLUC_R_SQUARED 0.375, read-out: LUCIFERASE INFECTION ASSAY - IC50): 4.06 µM |
| CCN(CC)S(=O)(=O)c1ccc(NC(=O)c2ccccc2Nc2cccc(C(F)(F)F)c2)cc1 | > 10 | IC50 (FFLUC_HILL_SLOPE 1.74, FFLUC_R_SQUARED 0.823, read-out: LUCIFERASE INFECTION ASSAY - IC50): > 10 µM |
| COc1ccccc1-n1c(SCCn2c([N+](=O)[O-])cnc2C)nc2sc3c(c2c1=O)CCCC3 | 4.01 | IC50 (HEPG2TOX_HILL_SLOPE 0.275, HEPG2TOX_R_SQUARED 0.775, PBLUC_HILL_SLOPE 12.8, PBLUC_R_SQUARED 0.595, read-out: LUCIFERASE INFECTION ASSAY - IC50): 3.38 µM |
